Reference: ChEMBL document CHEMBL1275428, “First case of emergence of atovaquone-proguanil resistance in Plasmodium falciparum during treatment in a traveler in Comoros” (Antimicrob Agents Chemother, 2008)
pIC50: −log10 of the molar value.

Tested on: Plasmodium falciparum
Assay: microbe, parasite or virus in culture
Conditions: not given

SMILES	pIC50
CC1(C)N=C(N)N=C(N)N1c1ccc(Cl)cc1 [CYCLOGUANIL]	6.60
CCc1nc(N)nc(N)c1-c1ccc(Cl)cc1 [PYRIMETHAMINE]	5.60
CCNCc1cc(Nc2ccnc3cc(Cl)ccc23)ccc1O [DESETHYL AMODIAQUINE]	7.52
CCCCN(CCCC)CC(O)c1cc(Cl)cc2c1-c1ccc(Cl)cc1/C2=C/c1ccc(Cl)cc1 (stereo unspecified) [LUMEFANTRINE]	7.82
OC(c1cc(C(F)(F)F)nc2c(C(F)(F)F)cccc12)C1CCCCN1 (stereo unspecified) [MEFLOQUINE]	7.47

Tested on: Plasmodium falciparum
Assay: not given
Assay type: functional, organism-based
Conditions: 552 h

SMILES	pIC50
O=C1C(O)=C([C@H]2CC[C@H](c3ccc(Cl)cc3)CC2)C(=O)c2ccccc21 [ATOVAQUONE]	6.41
